The data set relates to FXa. As to conditions: in vivo. The procedure: New Zealand white rabbits of both sexes, weighing 2.5-3.5 kg were used in all experiments. […] The rabbits were anaesthetized with Mebumal, 20 mg/kg. The anaesthesia was subsequently maintained as required. The animals were shaved and a medial laparotomy performed. The test compounds were then injected directly into the duodenum, after which the peritoneal cavity was closed. Rectal administration was performed by means of a syringe coupled to a plastic tube designed for use in the rectum of rabbits. The dosage was checked by weighing of the syringe and connecting tubings before and after administering the test compounds.
Blood samples (1 ml) were collected at 0.25, 0.5, 0.75, 1, 1.5, 2, 2.5, 3, 4, 5, 6, 7, 8, 9, and 10 hours with the aid of catheter inserted in the ear artery and mixed with sodium […] to a final concentration of 0.04M. The tubes were kept on ice until centrifuged at 800 g for 10 minutes. The anti-FXa activity in plasma was determined with an initial rate assay using bovine FXa (Kabi Pharmacia) and the chromogenic substrate S-2222.

For heparin, the “degree of absorption compared with Fragmin” value is “significantly lower than that of Fragmin®” and the “rectal absorption when admixed with the lipid system” value is on record as “significantly increased”. The “anti-FXa activity detected in plasma” value (2 mg/kg) is on record as “detectable levels of anti-FXa activity”. For the same substance, the average absorption (rabbit, 2 mg/kg) is on record as 15.7%±8.

The values above are taken from patent US5626869A, “Pharmaceutical composition containing a defined lipid system” (Pharmacia & Upjohn AB, priority 1992, dated 1997).
